We go through 3 compounds from patent US20050244906A1, “Detection kit, assay plate to be used therein, detection method, evaluation method, polyclonal antibody of frog vitellogenin and process for producing the same” (priority 2002, published 2005).

Assay [1] concerns hepatocyte in primary culture of an adult male Xenopus laevis. In kind it is cell-based.
From the text: Furthermore, by use of the assay system, the antagonist activity of a target substance could be evaluated.
The test system is the same in assay [2]. Briefly: VTG synthesis induction in primary hepatocyte culture, VTG in culture liquid by ELISA. In kind it is cell-based. The conditions noted are these: for estrogenic activity detected, equivalent E2 concentration: primary hepatocyte culture. As to the method:
• 10×perfusate (0.14% KCl, 5.5% NaCl, 0.44% pyruvate, 1% glucose, 2.38% HEPES, 5% BSA and 0.2% NaHCO3) • Collagenase perfusate (1×perfusate is controlled to pH 7.2 to 7.5 with phenol red to prepare a solution of 0.1% collagenase. Filtration and sterilization) • Culture liquid (50% L-15, 1 μg/ml insulin, 0.5% glucose and antibiotics) B: Sampling Method of Hepatocyte […] A frog is sterilized in potassium permanganate (5 mg/ml) for 2 hr or more (superficial skin color becomes brown). 2. An anesthetic (20 mg/ml-aminobenzoic acid ethylester) is injected by 0.5 to 1.0 ml to an abdominal cavity. 3. A ventral skin is thoroughly sterilized with a cotton bud wetted with alcohol, followed by operating. 4. A heart is exposed, a syringe is inserted from a cardiac chamber, and a collagenase perfusate is sent in through a hepatic vein by use of a […] pump to perfuse a liver. 5. The liver is taken out and transferred in a beaker, followed by cutting small with a pair of scissors. 6. Transferring into an L-tube together with a small amount of collagenase perfusate. 7. Shaking for 30 to 60 min in an incubator at 24 degrees centigrade. 8. Suspending thoroughly with a pipette, followed by filtering through a nylon mesh. 9. A slight amount of culture liquid is added, followed by centrifuging at 300 rpm for 1 to 2 min. […] A centrifugal supernatant is sucked and removed, followed by centrifuging a culture liquid once more (this operation is repeated twice). 11. […] 12. Seeding every 100 to 300 μl to a microplate (substantially 20,000 pieces/well is better). 13. Cultivating in an incubator at 24 degrees centigrade. […] In the case of the E2 processing, it is known that from the third day on after the processing vitellogenin can be detected in the culture liquid; however, since survived hepatocytes in culture are stable for three weeks, for the test of a substance low in the activity, evaluation is carried out for a longer period. As one of applications of the ELISA KIT, an application to the quantification of VTG concentration in a liquid Xenopus laevis hepatocyte culture was studied as well. […] Of a culture liquid after 6 days from the start of culturing (exchanged on the third day), the quantification of the VTG concentration was carried out with the ELISA KIT. By combining the exposure test to hepatocytes in primary culture and the ELISA, an application to a quantitative screening method of the estrogen activity of various chemicals was studied. […] According to a method similar to (Example 2-2), primary cultured hepatocytes of an adult male Xenopus laevis were prepared, followed by culturing in a culture liquid containing one of the chemicals, and with a culture liquid after 6 days, according to the ELISA, a VTG concentration in the culture liquid was quantified.
On the technique in general: In an ELISA, binding on a coated surface is turned into a signal by an enzyme label.

The test system of assay [3] is adult male Xenopus laevis. Briefly: Injection method in adult male Xenopus laevis; vitellogenin quantified by ELISA sandwich method. The format is in vivo. The protocol: Adult male Xenopus laevis same in the age as A were used. Five thereof in which an E2 solution was injected by means of injection (experimental group) and another five thereof in which propylene glycol that was a solvent was injected by use of an injection by substantially 200 μl (comparative group) were bred in a glass water bath filled with 20 L of dechlorinated tap water. Exposure concentrations of E2 were five levels of 0.002 μg/g BW, 0.02 μg/g BW, 0.2 μg/g BW, 2 μg/g BW and 20 μg/g BW, and, during a breeding period of 7 days, reinjection was once (at 3.5 days) applied. A water temperature was set at 22 degrees centigrade, bright and dark periods each were set at 12 hr, and during a test period bait was not fed. At the injection, individual organisms were measured of weight and substantially 200 μl of the E2 solution was injected so as to be a set concentration. At the detection of the vitellogenin, two samples of a blood serum and a liver homogenate were used and compared to study. A. Sampling of Blood Serum 1. To an abdominal cavity of a frog, 0.5 to 1.0 ml of an anesthetic agent (20 mg/ml aminobenzoic acid ethyl ester) was injected. 2. An operation was performed, and 0.2 ml of blood was sampled from a pulsating heart with a syringe in a tube and placed on ice. 3. […] The diluted sample was quantified of the vitellogenin according to the ELISA sandwich method.

The test system of assay [4] is adult male Xenopus laevis. Briefly: Exposure in water of adult male Xenopus laevis; vitellogenin quantified by ELISA sandwich method. The format is in vivo. As to the method: Adult male Xenopus laevis of same age (two years and half old) were used. Every five thereof were bred in each of a water bath where one in which in 20 L of dechlorinated tap water E2 dissolved in DMSO was added was filled (experimental group) and a water bath where one in which in 20L of dechlorinated tap water the same amount of DMSO that is a solvent was added is filled (comparative group). Exposure concentrations of the E2 were five levels of 0.1 nM, 1 nM, 10 nM, 100 nM and 1000 nM, and, at 3.5 days during a breeding period of 7 days, the breeding water was once exchanged. A water temperature was set at 22 degrees centigrade, bright and dark periods each were set at 12 hr, and during a test period bait was not fed.
At the detection of the vitellogenin, two samples of a blood serum and a liver homogenate were used and compared to study.
A. Sampling of Blood Serum
1. To an abdominal cavity of a frog, 0.5 to 1.0 ml of an anesthetic agent (20 mg/ml aminobenzoic acid ethyl ester) was injected.
2. An operation was performed, and 0.2 ml of blood was sampled from a pulsating heart with a syringe in a tube and placed on ice.
3. A centrifugal process was applied at 15000 rpm, at 4 degrees centigrade for 10 min, followed by sampling a supernatant.
4. Dilution was applied at a factor of 10 with a 20 mM of an EDTA-0.2 percent Tween 20-PBS solution followed by refrigerating and preserving (in the case of long preservation, by freezing and preserving).
The diluted sample was quantified of the vitellogenin according to the ELISA sandwich method.
1. After the sampling of blood, a liver piece was cut to substantially 0.05 to 0.1 g followed by weighing.
2. In a tube where the liver piece put, 1 ml of 20 mM EDTA-0.5% Tween 20-PBS solution was added.
3. The liver was homogenized over ice.
4. A centrifugal process was applied at 15000 rpm, at 4 degrees centigrade for 10 min, followed by sampling a supernatant, further followed by refrigerating and preserving (in the case of long preservation, by freezing and preserving).
The diluted sample was quantified of the vitellogenin by ELISA sandwich.

Read-outs that look alike come from different tables or passages of the source.

Consider `CC(C)(c1ccc(O)cc1)c1ccc(O)cc1` [BPA, bisphenol A], for which the “antagonist activity on VTG synthesis induction due to 5 nM E2” value in assay [1] (co-culture with 5 nM E2, increasing concentration of added chemical) was “antagonistic activity was exhibited”.
In the case of `C[C@]12CC[C@@H]3c4ccc(O)cc4CC[C@H]3[C@@H]1CC[C@@H]2O` [E2, 17β-estradiol], in assay [2] (cultivated hepatocyte), the “concentration at which vitellogenin synthesis reaches the maximum” value was “lower than 1000 nM”. Also, the “exposure concentration giving significant concentration-dependent increase in vitellogenin concentration” value in assay [2] (hepatocyte in culture, culture liquid, ELISA) is reported as not below 0.6 nM. For the same compound, the “estrogenic activity detected, equivalent E2 concentration” value is given as approximately 0.1 nM in assay [2] (ELISA KIT) and approximately 0.03 nM in assay [2] (ELISA with biotinylated antibody). In assay [3], the “dose dependence of vitellogenin response” value is given as “increased dependent on an administered amount”. Moreover, the “production quantity of the vitellogenin” value was approximately 14000 μg/ml in assay [3] (at 73 nM (assumed uniform diffusion in body)) and approximately 13000 μg/ml in assay [4] (exposure method in water, 100 nM). Also, the “E2 concentration at which blood plasma VTG / VTG synthesis induction can be detected with the ELISA KIT” value in assay [4] (exposure in water for 7 days, adult male, ELISA KIT) is given as not below 1 nM. Also, the “vitellogenin response at 100 nM” value in assay [4] (exposure in water, 7 days, 100 nM) is “obviously rose high”. Also, the “vitellogenin synthesis at 1000 nM” value in assay [4] (exposure in water, 7 days, 1000 nM) is listed as “does not increase”. In addition, the “E2 concentration from which vitellogenin response was observed” value in assay [4] (exposure in water, 7 days, adult male) is not below 10 nM. For the same compound, the “concentration range of abrupt rise of vitellogenin” value in assay [4] (exposure method in water) fell in the range of 10 to 100 nM.
In the case of nonylphenol [NP], the “antagonist activity on VTG synthesis induction due to 5 nM E2” value in assay [1] was “antagonistic activity was exhibited”.
